Experimental data reported in patent publication US20240358822A1, “ALLERGY TREATMENT” (ENA RESPIRATORY PTY LTD, priority 2021, published 2024).

Tests used:
Type in all cases: cell-based, human
[1] = tested on: PBMC from grass pollen allergic patients; assay: Expansion of Th2 cell phenotypes on allergen stimulation, Flow Cytometry; conditions: in the presence of allergen; 6 days
Method: FIG. 3. Treatment with INNA-001 suppresses the expansion of pro-allergic Th2 cell phenotypes in response to allergen stimulation. PBMC from grass pollen allergic patients (N=12) were cultured for 6 days with or without allergen (Phlp at 10 μg/mL) and with or without a range of concentrations of INNA-001. After 6 days, the cells were harvested, washed and activated with phorbol 12-myristate 13-acetate (25 ng/mL) and ionomycin (1 μg/mL) for 5 hours. Brefeldin A (10 μg/mL) was added for the final 4 hours of stimulation. Subsequently the cells were washed and stained for anti-human CD4, CD27, CRTH2, CD49d, CD161, IL-13 and IL-4. Analysis was performed by Flow Cytometry. Proliferation of cells was measured using CellTrace violet. All data shown are mean±SEM. Graphs represent normalised changes from baseline (untreated). Statistical analysis was performed using ANOVA with Dunn's multiple comparisons test for within-group comparisons (*p<0.05, **p<0.01, ***p<0.001 for the +Phlp group).
FIG. 4. […]
PBMC from patients with allergy to Timothy grass pollen (Phleum pratense) were cultured for 6 days in the presence or absence of allergen and INNA-001 or control compounds. Allergen-induced proliferation and cytokine production were assessed and the phenotype of proliferating allergen-stimulated T cells was determined.

[2] = tested on: PBMC from grass pollen allergic patients; assay: IL-10 producing monocytes after 24 hours PBMC culture, Flow Cytometry
Method: FIG. 12. […] PBMC from grass pollen allergic patients were cultured for 24 hours with or without allergen (Phlp at 10 μg/mL) and with or without a range of concentrations of INNA-001 or Pam2CSK4 (0.3, 3 and 10 μg/mL). At 24 hours the cells were harvested, washed and stained for anti-human CD14, CD16 and IL-10. Analysis was performed by Flow Cytometry. A) Flow Cytometry representative plots (N=3) for percentage of IL-10-producing subpopulation of non-classical (CD14^low CD16^+) monocytes after treatment with […] of TLR2 agonists (INNA-001 or Pam2CSK4) in the presence of Phlp. B) Quantification (N=12) of IL-10 producing non-classical (CD14^low CD16^+) and C) Quantification (N=12) of IL-10 producing classical (CD14^highCD16^−) monocytes. All data shown are mean±SEM. Graphs represent changes from baseline (untreated). Statistical analysis was performed using ANOVA with Dunn's multiple comparisons test for within-group comparisons. Mann-Whitney U test was performed for between-group comparisons. Statistical significance in the +Phlp group: *p<0.05, **p<0.01, ***p<0.001.
FIG. 13. […] PBMC from grass pollen allergic patients (N=3) were cultured for 24 hours with or without allergen (Phlp at 10 μg/mL) and with or without a range of concentrations of INNA-001, INNA-003 or INNA-006 (0.3, 3, 10 and 30 μg/ml). At 24 hours the cells were harvested, washed and stained for anti-human CD14, CD16 and IL-10. Analysis was performed by Flow Cytometry. All data shown are mean±SEM.
To examine it, PBMC from patients with allergy to Timothy grass pollen (Phleum pratense) were cultured with INNA-001 or control TLR2 agonist compounds, in the presence or absence of allergen, for 24 hours. At 24 hours the cells were harvested, washed and stained for IL-10 and the monocyte markers CD16 and CD14, using relevant anti-human antibodies. Analysis of the monocyte populations (classical and non-classical monocytes) was performed by Flow Cytometry. Lymphoid cells were excluded using antibodies against lineage markers CD3, CD4, CD15, CD19, CD56.

[3] = tested on: PBMC from grass pollen allergic patients; assay: CD4+ T regulatory cell induction in PBMC, 6 days, Flow Cytometry / FlowSOM
Method: FIG. 14. […] PBMC from grass pollen allergic patients were cultured for 6 days with or without allergen (Phlp at 10 μg/mL) and with or without a range of concentrations of INNA-001 or Pam2CSK4 (0.3, 3 and […]). At day 6 the cells were harvested, washed and stained for anti-human CD4, CD25, CD127 and Foxp3. Analysis was performed by Flow Cytometry. All data shown are mean±SEM. Graphs represent changes from baseline (untreated). Statistical analysis was performed using ANOVA with Dunn's multiple comparisons test for within-group comparisons. Mann-Whitney U test was performed for between-group comparisons. Statistical significance in the +Phlp group: *p<0.05, **p<0.01, ***p<0.001.
FIG. 15. […] PBMC from grass pollen allergic patients were cultured for 6 days with or without allergen (Phlp at 10 μg/mL) and with or without a range of concentrations of INNA-001 or Pam2CSK4 (0.3, 3 and 10 μg/ml). At day 6 the cells were harvested, washed and stained for anti-human CD4, CD25, CD127, Foxp3 and CD45RO. Analysis was performed by Flow Cytometry. All data shown are mean±SEM. Graphs represent changes from baseline (untreated) (A) naive FoxP3^+CD25^+CD127^−CD4^+CD45RO^− cells, and (B) memory FoxP3^+CD25^+CD127^−CD4^+CD45RO^+ cells. Statistical analysis was performed using ANOVA with Dunn's multiple comparisons test for within-group comparisons. Mann-Whitney U test was performed for between-group comparisons. Statistical significance in the +Phlp group: *p<0.05, **p<0.01, ***p<0.001.
FIG. 16. […] PBMC from grass pollen allergic patients (N=3 for INNA=003 & INNA-006, N=7 for INNA-001 & Pam2CSK4) were cultured for 6 days with or without allergen (Phlp at 10 μg/mL) and with or without a range of concentrations of INNA-001, INNA-003, INNA-006 or Pam2CSK4 (0.3, 3 and 10 μg/mL). At day 6 the cells were harvested, washed and stained for anti-human CD4, CD25, CD127, Foxp3 and CD45RO. Analysis was performed by Flow Cytometry. All data shown are mean±SEM.
FIG. 17. […] PBMC from grass pollen allergic patients were cultured for 6 days with allergen (Phlp at 10 μg/mL) and with or without INNA-001 or Pam2CSK4 (3 μg/mL). At 6 days the cells were harvested, washed and stained for anti-human Foxp3, CD4, CD25, CD45RO, CD127, CTLA4 and SABT1. Analysis was performed by Flow Cytometry. The data were further analysed using unbiased FlowSOM technique. Foxp3^+ T regulatory cell metacluster identification following treatment with INNA-001 A) in the presence of Phlp (N=3) or B) absence of Phlp (N=3). C) Heatmap display of the marker expression profile of the identified metaclusters (N=3). D) Quantification of population abundance of the metaclusters 3, 5 and 9 following INNA-001 and Pam2CSK4 treatment in the presence of Phlp (N=3). […]

[4] = tested on: PBMC from grass pollen allergic patients; assay: Kinetics of IL-10 production by PBMC, ELISA
Method: (§1) FIG. 9. […] PBMC from grass pollen allergic patients (N=3) were cultured for 24 hours with or without a range of allergen concentrations (Phlp at […]), in the presence or absence of a range of INNA-001, INNA-006 or Pam2CSK4 concentrations (from 0.01 to 10 μg/mL). The culture supernatants were harvested and the levels of IL-10 (A) and IL-6 (B) were measured by ELISA. All data shown are mean±SEM.
FIG. 10. […] PBMC from grass pollen allergic patients (N=3) were cultured for 24 hours, 72 hours or 6 days, with or without allergen (Phlp […]), in the presence or absence of a range of INNA-001, INNA-006 or Pam3CSK4 concentrations (0.3, 3, 10 and 30 μg/mL). The culture supernatants were harvested and the levels of IL-10 were measured by ELISA. All data shown are mean±SEM.
(§2) PBMC from patients with allergy to Timothy grass pollen (Phleum pratense) or cat (Fel d 1) were cultured for 24 hours, 72 hours or 6 days, in the presence or absence of allergen and INNA-001, INNA-006 or Pam3CSK4 (a TLR2 agonist known to induce IL-10 production) and the production of IL-10 and IL-6 (used as a control, TLR2-induced cytokine) was measured in the cell culture supernatants.

[5] = tested on: PBMC from grass pollen allergic patients; assay: IL-6 production by PBMC at 24 hours, ELISA
Method: as §1, §2

[6] = tested on: PBMC from cat allergic patients; assay: IL-10 production by PBMC of cat allergic patients, ELISA; conditions: 24 hours, 72 hours, 6 days; cat allergen Feld 1
Method: FIG. 11. […] PBMC from cat allergic patients (N=3) were cultured for 24 hours, 72 hours or 6 days, with or without allergen (Feld 1 0.1 or […]), in the presence or absence of a range of INNA-001, INNA-006 or Pam2CSK4 concentrations (0.3, 3, 10 and 30 μg/mL). The culture supernatants were harvested and the levels of IL-10 were measured by Elisa.
as §2

Substance	number of proliferating IL-13 producing-Th2 (CD4+CD27-CRTH2+IL-13+) cells [1]	number of IL-10+ non-classical CD14low/CD16+ monocytes ([2]; 24 hours)	numbers of IL-10+ classical CD14high/CD16- monocytes ([2]; 24 hours)	influence of allergen on IL-10+ classical monocytes ([2]; with versus without allergen)	memory FoxP3+CD25+CD127-CD4+CD45RO+ T regulatory cells [3]	naive FoxP3+CD25+CD127-CD4+CD45RO- T regulatory cells [3]	total number of CD4+CD25+CD127- regulatory T cells [3]	expansion of Foxp3+ T regulatory cell metaclusters MC3, MC5 and MC9 (FlowSOM) ([3]; 3 μg/mL)	IL-10 generation at 24 hours ([4]; 24 hours, presence or absence of allergen)	IL-10 levels at 72 hours and 6 days ([4]; 72 hours, 6 days)	influence of parallel allergen stimulation on IL-10 production ([4]; with versus without allergen)	IL-6 generation at 24 hours [5]	influence of parallel allergen stimulation on IL-6 production ([5]; with versus without allergen)	IL-10 upregulation in PBMC of cat allergic subjects [6]
Pam2CSK4	also reduced the number of proliferating Th2 (CD4+CD27−CRTH2+IL-13+) cells, but to a lesser degree than INNA-001	increase, although slightly less pronounced	lower increase	independent of the presence of allergen	Analogous	Analogous	Analogous results	the same metaclusters were also found prominent						
Pam3CSK4									rapid, dose-dependent generation of IL-10	remained high, but with declining levels	did not appear to considerably influence	strong IL-6 generation	did not appear to influence	stimulated dose-dependent upregulation of IL-10
